Target: human P2X3 receptor (Homo sapiens (Human), UniProt P56373)
Assay: Evaluation of human P2X3 receptor inhibitory activity (Fluo-3 calcium fluorescence, FDSS 3000, ATP stimulation);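 also: stimulus was 50 nM ATP with fluorescence followed for 3 min, and the response per well was peak post-ATP fluorescence divided by the reading at measurement start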
Format: cell-based
[1] = C6BU-1 cells stably expressing human P2X3 receptor
[2] = human P2X3 receptor, Test Example 1
[3] = C6BU-1 cells stably expressing human P2X3 receptor, Fluo-3 fluorescence, FDSS 3000

Sequence of human P2X3 receptor (P56373 whole entry): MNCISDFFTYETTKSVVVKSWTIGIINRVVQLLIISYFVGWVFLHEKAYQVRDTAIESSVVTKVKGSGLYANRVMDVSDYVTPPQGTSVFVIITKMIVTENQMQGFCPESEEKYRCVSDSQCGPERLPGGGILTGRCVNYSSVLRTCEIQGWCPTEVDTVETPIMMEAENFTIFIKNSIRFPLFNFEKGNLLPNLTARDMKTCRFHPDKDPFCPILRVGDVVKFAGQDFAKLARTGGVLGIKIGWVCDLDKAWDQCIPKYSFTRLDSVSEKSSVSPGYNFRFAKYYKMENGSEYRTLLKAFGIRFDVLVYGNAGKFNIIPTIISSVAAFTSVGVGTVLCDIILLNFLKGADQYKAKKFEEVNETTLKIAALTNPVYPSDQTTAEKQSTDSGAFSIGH

Row | Compound | IC50 [1] | IC50 [2] | also measured
1 | CCn1c(=O)[nH]/c(=N\c2ccc(Oc3nc(C)c(C(=O)O)s3)cc2)n(Cc2ccc(Cl)cc2)c1=O [Compound I-2151] | 12 nM | – | –
2 | Cc1ccc(Cn2c(=O)n(C[C@H](C)C(=O)O)c(=O)[nH]/c2=N\c2ccc(C(=O)C3CC3)cc2)cc1 [Compound I-1305] | 227 nM | – | –
3 | Cc1cc(Oc2ccc(/N=c3\[nH]c(=O)n(C[C@@H]4COC(C)(C)O4)c(=O)n3Cc3ccc(Cl)cc3)cc2)no1 [Compound I-2228] | – | 5 nM | –
4 | Cc1ccc(Cn2c(=O)n(CC3(CC(=O)O)CC3)c(=O)[nH]/c2=N\c2ccc(OC(C)C)c(Cl)c2)cc1 [Compound I-0983] | – | – | IC50 [3]: 7 nM
5 | O=C(O)c1cncc(Oc2ccc(/N=c3\[nH]c(=O)n(C4CCC4)c(=O)n3Cc3ccc(Cl)cc3)cc2)c1 [Compound I-2485] | – | 8 nM | –
6 | CC(C)Oc1ccc(/N=c2\[nH]c(=O)[nH]c(=O)n2Cc2ccc(Cl)cc2)cc1 [Compound I-1981] | 354 nM | – | –
7 | CNC(=O)CCn1c(=O)[nH]/c(=N\c2ccc(OC(C)C)c(Cl)c2)n(CC2CCC(C)CC2)c1=O (stereo not drawn) [Compound I-2019] | 5 nM | – | –
8 | Cc1ccc(Cn2c(=O)n(CCC(=O)O)c(=O)[nH]/c2=N\c2cccc(Cl)c2F)cc1 [Compound I-2054] | 611 nM | – | –
9 | Cc1ccc(Cn2c(=O)n(CCCC(=O)O)c(=O)[nH]/c2=N\c2ccc(Oc3ccncc3)cc2)cc1 [Compound I-1243] | 12 nM | – | –
10 | CC[C@@H](C)Oc1ccc(/N=c2\[nH]c(=O)n(C[C@H](C)C(=O)O)c(=O)n2Cc2ccc(C)cc2)cc1C [Compound I-0853] | – | 13 nM | –
11 | Cc1ccc(Cn2c(=O)n(C)c(=O)[nH]/c2=N\c2ccc(Oc3cc(C#N)ccn3)cc2)cc1 [Compound I-2340] | – | 13 nM | –
12 | O=c1[nH]/c(=N\c2ccc(Oc3cccnn3)cc2)n(Cc2ccc(Cl)cc2)c(=O)n1CC(CO)CO [Compound I-2692] | – | 8 nM | –
13 | C/C=C/c1ccc(Cn2c(=O)n(C[C@H](C)C(=O)O)c(=O)[nH]/c2=N\c2ccc(OC(C)C)cc2)cc1 [Compound I-1160] | – | – | IC50 [3]: 973 nM
14 | CCOc1ccc(/N=c2\[nH]c(=O)n(CCC(=O)O)c(=O)n2Cc2ccc(C)cc2)c(F)c1F [Compound I-2052] | 68 nM | – | –
15 | COC(=O)[C@@H](C)Cn1c(=O)[nH]/c(=N\c2ccc(C=C(C)C)c(C)c2)n(Cc2ccc(Cl)cc2)c1=O [Compound I-0948] | – | – | IC50 [3]: 19 nM
16 | COCCn1c(=O)[nH]/c(=N\c2ccc(Oc3cncc(C(=O)O)c3)cc2)n(Cc2ccc(Cl)cc2)c1=O [Compound I-2547] | – | 8 nM | –
17 | O=C(Cn1c(=O)[nH]/c(=N\c2ccc(Oc3ncns3)cc2)n(Cc2ccc(Cl)cc2)c1=O)NCCO [Compound I-2674] | – | 5 nM | –
18 | CCn1c(=O)[nH]/c(=N\c2ccc(Oc3ncccc3C(N)=O)cc2)n(Cc2ccc(Cl)cc2)c1=O [Compound I-2365] | – | 211 nM | –
19 | O=c1[nH]/c(=N\c2ccc(Oc3cccc(F)n3)cc2)n(Cc2ccc(F)cc2)c(=O)n1CC(CO)CO [Compound I-2583] | – | 15 nM | –
20 | CCn1c(=O)[nH]/c(=N\c2cccc(Oc3cccc(C(=O)O)n3)c2)n(Cc2ccc(Cl)cc2)c1=O [Compound I-2592] | – | 350 nM | –
21 | Cc1cc(/N=c2\[nH]c(=O)n([C@H](C)[C@H](C)C(=O)O)c(=O)n2Cc2ccc(Cl)cc2)ccc1OC(C)C [Compound I-0825] | – | 25 nM | –

Row | Compound | IC50 [1] | IC50 [2] | also measured
22 | C[C@@H](Cn1c(=O)[nH]/c(=N\c2ccc(OCC(F)F)cc2)n(Cc2ccc(Cl)cc2)c1=O)C(=O)O [Compound I-0848] | – | 60 nM | –
23 | Cc1ccc(Cn2c(=O)n([C@H](C)[C@H](C)C(=O)O)c(=O)[nH]/c2=N\c2ccc(CC(C)C)c(Cl)c2)cc1 [Compound I-1444] | 4 nM | – | –
24 | CCOc1ccc(/N=c2\[nH]c(=O)n(C[C@H](O)CO)c(=O)n2Cc2ccc(Cl)cc2)cc1Cl [Compound I-1907] | – | – | IC50 [3]: 8 nM
25 | Cn1c(=O)[nH]/c(=N\c2ccc(Oc3ccon3)cc2)n(Cc2ccc(Cl)cc2)c1=O [Compound I-2356] | – | 24 nM | –
26 | CC(C)N1C(=O)Cc2cc(/N=c3\[nH]c(=O)n([C@@H](C)[C@@H](C)C(=O)O)c(=O)n3Cc3ccc(Cl)cc3)ccc21 [Compound I-1779] | – | – | IC50 [3]: 203 nM
27 | CC(C)Oc1ccc(/N=c2\[nH]c(=O)n(C[C@H](C)C(=O)O)c(=O)n2Cc2ccccc2)cc1Cl [Compound I-0794] | 168 nM | – | –
28 | COC(=O)[C@@H](C)Cn1c(=O)[nH]/c(=N\c2ccc(-c3noc(C)n3)cc2)n(Cc2ccc(Cl)cc2)c1=O [Compound I-1529] | – | 26 nM | –
29 | CCc1oc2ccc(/N=c3\[nH]c(=O)n(CC(=O)NC)c(=O)n3Cc3ccc(Cl)cc3)cc2c1C [Compound I-1657] | – | – | IC50 [3]: 9 nM
30 | COC(=O)[C@H](C)[C@H](C)n1c(=O)[nH]/c(=N\c2ccc3oc4ccccc4c3c2)n(Cc2ccc(Cl)cc2)c1=O [Compound I-1827] | – | – | IC50 [3]: 913 nM
31 | Cc1ccc(Cn2c(=O)n(C[C@H](C)C(=O)O)c(=O)[nH]/c2=N\c2ccc(NC(=O)C(C)C)c(Cl)c2)cc1 [Compound I-1420] | 607 nM | – | –
32 | COC(=O)[C@H](C)[C@H](C)n1c(=O)[nH]/c(=N\c2ccc(OCC3CC3)c(Cl)c2)n(Cc2ccc(C)cc2)c1=O [Compound I-0969] | – | – | IC50 [3]: 47 nM
33 | COC(=O)CC1(Cn2c(=O)[nH]/c(=N\c3ccc(OC(C)C)c(Cl)c3)n(Cc3ccc(C)cc3)c2=O)CC1 [Compound I-0979] | – | – | IC50 [3]: 6 nM
34 | COC(=O)[C@@H](C)[C@@H](C)n1c(=O)[nH]/c(=N\c2ccc(OC3CCC3)cc2)n(Cc2ccc(C)cc2)c1=O [Compound I-1453] | 13 nM | – | –
35 | COC(=O)[C@@H](C)Cn1c(=O)[nH]/c(=N\c2ccc(CC(C)C)c(Cl)c2)n(Cc2ccc(C)nc2)c1=O [Compound I-1464] | 70 nM | – | –
36 | COC(=O)[C@@H](O)Cn1c(=O)[nH]/c(=N\c2ccc(OC(C)C)c(C)c2)n(Cc2ccc(Cl)cc2)c1=O [Compound I-0994, (S)-1-(4-chlorobenzyl)-6-(3-mehyl-4-isopropoxyphenylimino)-3-(2-methoxycarbonyl-2-hydroxyethyl)-1,3,5-triazinane-2,4-dion] | – | – | IC50 [3]: 20 nM
37 | CCn1c(=O)[nH]/c(=N\c2ccc(OCC3(C(=O)O)CC3)cc2)n(Cc2ccc(Cl)cc2)c1=O [Compound I-2021] | 230 nM | – | –
38 | CCCOc1ccc(/N=c2\[nH]c(=O)n(CC(F)(F)C(=O)O)c(=O)n2Cc2ccc(C)cc2)cc1 [Compound I-0871] | – | 40 nM | –
39 | C[C@@H](Cn1c(=O)[nH]/c(=N\c2cccc(C(F)(F)F)c2)n(Cc2ccc(Cl)cc2)c1=O)C(=O)O [Compound I-0628] | 61 nM | – | –
40 | COC(=O)CCCn1c(=O)[nH]/c(=N\c2ccc(Oc3ccc(C)nc3)cc2)n(Cc2ccc(Cl)cc2)c1=O [Compound I-1368] | 5 nM | – | –
41 | CCCc1ccc(/N=c2\[nH]c(=O)n(CCC(=O)O)c(=O)n2Cc2ccc(Cl)cc2)cc1C [Compound I-1253] | 281 nM | – | –
42 | C[C@@H](Oc1ccc(/N=c2\[nH]c(=O)n(CCC(=O)O)c(=O)n2Cc2ccc(Cl)cc2)cc1)C(F)(F)F [Compound I-1908] | 70 nM | – | –

Row | Compound | IC50 [1] | IC50 [2] | also measured
43 | COC(=O)Cn1cccc(Cn2c(=O)[nH]/c(=N\c3ccc(OC(C)C)c(C)c3)n(Cc3ccc(Cl)cc3)c2=O)c1=O [Compound I-0757] | 35 nM | – | –
44 | Cc1cc(/N=c2\[nH]c(=O)n(Cc3cccn(CCO)c3=O)c(=O)n2Cc2ccc(Cl)cc2)ccc1OC(C)C [Compound I-0713] | 16 nM | – | –
45 | CCc1nc2ccc(/N=c3\[nH]c(=O)n(CCCO)c(=O)n3Cc3ccc(Cl)cc3)cc2s1 [Compound I-1622] | – | – | IC50 [3]: 4 nM
46 | CCn1c(=O)[nH]/c(=N\c2ccc(Oc3ccc(S(N)(=O)=O)cc3)cc2)n(Cc2ccc(C)cc2)c1=O [Compound I-2032] | 4 nM | – | –
47 | C[C@@H](C(=O)O)[C@H](C)n1c(=O)[nH]/c(=N\c2ccc3c(c2)C(=O)CC3)n(Cc2ccc(Cl)cc2)c1=O [Compound I-1831] | – | – | IC50 [3]: 739 nM
48 | CCn1c(=O)[nH]/c(=N\c2ccc(Oc3cnc(C(=O)O)cn3)cc2)n(Cc2ccc(Cl)cc2)c1=O [Compound I-2296] | – | 5 nM | –
49 | COC(=O)[C@H](C)[C@H](C)n1c(=O)[nH]/c(=N\c2ccc(OCC(C)C)cc2)n(Cc2ccc(Cl)cc2)c1=O [Compound I-1329] | 49 nM | – | –
50 | CCC(CC)Oc1ccc(/N=c2\[nH]c(=O)n(C[C@H](C)C(=O)O)c(=O)n2Cc2ccc(C)cc2)cc1 [Compound I-1062] | – | – | IC50 [3]: 37 nM
51 | O=c1[nH]/c(=N\c2ccc(Oc3ccon3)c(F)c2)n(Cc2ccc(Cl)cc2)c(=O)n1C(CO)CO [Compound I-2529] | – | 73 nM | –
52 | CCOC(=O)CCn1c(=O)[nH]/c(=N\c2ccc(Oc3cccnc3)cc2)n(Cc2ccc(C)cc2)c1=O [Compound I-1229] | 4 nM | – | –
53 | CCn1c(=O)[nH]/c(=N\c2ccc(Oc3cccc(C(=O)NC#N)n3)cc2)n(Cc2ccc(Cl)cc2)c1=O [Compound I-2593] | – | 1 nM | –
54 | CC(C)Cc1ccc(/N=c2\[nH]c(=O)n(CC(C)(CO)CO)c(=O)n2Cc2ccc(Cl)cc2)cc1Cl [Compound I-1637] | – | – | IC50 [3]: 12 nM
55 | CC(C)Oc1ccc(/N=c2\[nH]c(=O)n(C[C@H](C)C(=O)O)c(=O)n2Cc2ccc(F)cc2)cc1Cl [Compound I-0630] | 30 nM | – | –
56 | CCn1c(=O)[nH]/c(=N\c2ccc(Oc3cccc(C#N)n3)cc2)n(C[C@H]2CC[C@H](C)CC2)c1=O [Compound I-2494] | – | 1 nM | –
57 | C[C@@H](C(=O)O)[C@H](C)n1c(=O)[nH]/c(=N\c2ccc3[nH]ccc3c2)n(Cc2ccc(Cl)cc2)c1=O [Compound I-1781] | – | – | IC50 [3]: 518 nM
58 | COC(=O)c1cccc(Oc2ccc(/N=c3\[nH]c(=O)n(C)c(=O)n3Cc3ccc(C)cc3)cc2)c1 [Compound I-2031] | 52 nM | – | –
59 | C[C@@H](C(=O)O)[C@H](C)n1c(=O)[nH]/c(=N\c2ccc3c(c2)OC(F)(F)C(F)(F)O3)n(Cc2ccc(Cl)cc2)c1=O [Compound I-1783] | – | – | IC50 [3]: 170 nM
60 | CC(=O)NCCCn1c(=O)[nH]/c(=N\c2ccc(CC(C)C)c(Cl)c2)n(Cc2ccc(Cl)cc2)c1=O [Compound I-1614] | – | – | IC50 [3]: 9 nM
61 | CCOCc1ccc(/N=c2\[nH]c(=O)n(C[C@H](C)C(=O)OC)c(=O)n2Cc2ccc(C)cc2)cc1Cl [Compound I-1498] | – | 22 nM | –
62 | O=c1[nH]/c(=N\c2ccc(Oc3ccon3)cc2)n(Cc2ccc(Cl)cc2)c(=O)n1C[C@@H](O)CO [Compound I-2408] | – | 14 nM | –
63 | O=c1[nH]/c(=N\c2ccc(Oc3ccn[nH]3)cc2)n(Cc2ccc(Cl)cc2)c(=O)n1CCCO [Compound I-2452] | – | 36 nM | –

Reference: patent US9718790B2, “Triazine derivative and pharmaceutical composition having an analgesic activity comprising the same” (SHIONOGI & CO., LTD., priority 2010, dated 2017)
